In US10273248B2, “Glucose uptake inhibitors” (Kadmon Corporation LLC, priority 2015, dated 2019):
Structures can show the parent of a compound that is named as a salt.

test system: glycolysis in HT1080 cells; test: Glycolysis assay: oligomycin plus compound, cellular ATP by Cell Titer Glo; type: cell-based; settings: 10 μM oligomycin, one hour, class symbols
Description: Therefore, an assay was developed that utilizes the combination of the glucose uptake inhibitors disclosed herein with oligomycin, a well-characterized inhibitor of ATP synthase. Because oligomycin inhibits ATP derived from oxidative phosphorylation, any remaining ATP production is derived from glycolysis. By reading out cellular ATP levels using the Promega Cell Titer Glo kit, the extent of glycolysis inhibition by the glucose uptake inhibitors disclosed herein can be assessed. […] Utilizing this experimental set-up, the IC50 of glycolysis inhibition for each compound can be determined.
Determination of Glucose Uptake/GLUT Activity (Glycolysis Assay):
HT1080 cells (as well as other cell types) were plated to confluency in 96-well plates. Cells were exposed to the combination of 10 μM Oligomycin (to block mitochondrial-derived ATP) and the glucose uptake inhibitors disclosed herein for one-hour, after which glycolytically-derived ATP was measured with the Cell Titer-Glo assay kit (Promega). Dose-response curves of the glucose uptake inhibitors disclosed herein were used to determine the IC50 for GLUT activity.

IC50 [nM] | SMILES
101 to 250 | O=C(Nc1cccc(-c2nc(Nc3ccc(-c4cn[nH]c4)cc3)c3sccc3n2)c1)c1cccnc1 [Example 43, N-(3-(4-((4-(1H-pyrazol-4-yl)phenyl)amino)thieno[3,2-d]pyrimidin-2-yl)phenyl)nicotinamide]

same assay, conditions: Homo sapiens, HT-1080, 1 h, 10 μM oligomycin, one hour, class symbols

IC50 [nM] | SMILES
101 to 250 | O=C(COc1cccc(-c2nc3c(c(Nc4ccc(-c5cn[nH]c5)cc4)n2)CSC3)c1)NC1CCCC1 [Example 87, 2-(3-(4-((4-(1H-pyrazol-4-yl)phenyl)amino)-5,7-dihydrothieno[3,4-d]pyrimidin-2-yl)phenoxy)-N-cyclopentylacetamide]
501 to 1000 | Fc1cncc(CNc2cccc(-c3nc4c(c(Nc5ccc(-c6cn[nH]c6)cc5)n3)COC4)c2)c1 [Example 92, N-(4-(1H-pyrazol-4-yl)phenyl)-2-(3-(((5-fluoropyridin-3-yl)methyl)amino)phenyl)-5,7-dihydrofuro[3,4-d]pyrimidin-4-amine]
10 to 100 | CC(C)(C)NC(=O)COc1cccc(-c2nc(Nc3ccc(-c4cn[nH]c4)cc3)c3ccncc3n2)c1 [Example 136, 2-(3-(4-((4-(1H-pyrazol-4-yl)phenyl)amino)pyrido[3,4-d]pyrimidin-2-yl)phenoxy)-N-(tert-butyl)acetamide]
10 to 100 | CC(C)NC(=O)COc1cccc(-c2nc(Nc3ccc(-c4cn[nH]c4)cc3)c3ccncc3n2)c1 [Example 62, 2-(3-(4-((4-(1H-pyrazol-4-yl)phenyl)amino)pyrido[3,4-d]pyrimidin-2-yl)phenoxy)-N-isopropylacetamide]
> 1000 | CC(C)NC(=O)COc1cccc(-c2nc(Nc3ccc(-c4cn[nH]c4)cc3)c3ncccc3n2)c1 [Example 48, 2-(3-(4-((4-(1H-pyrazol-4-yl)phenyl)amino)pyrido[3,2-d]pyrimidin-2-yl)phenoxy)-N-isopropylacetamide]
10 to 100 | CC(C)C(=O)N1CCc2nc(-c3cccc(OCC(=O)NC4CCC4)c3)nc(Nc3ccc(-c4cn[nH]c4)cc3)c2C1 [Example 152, 2-(3-(4-((4-(1H-pyrazol-4-yl)phenyl)amino)-6-isobutyryl-5,6,7,8-tetrahydropyrido[4,3-d]pyrimidin-2-yl)phenoxy)-N-cyclobutylacetamide]
10 to 100 | O=C(Nc1cccc(-c2nc3c(c(Nc4ccc(-c5cn[nH]c5)cc4)n2)COC3)c1)c1cccnc1 [Example 47, N-(3-(4-((4-(1H-pyrazol-4-yl)phenyl)amino)-5,7-dihydrofuro[3,4-d]pyrimidin-2-yl)phenyl)nicotinamide]
10 to 100 | CCC(=O)N1CCc2nc(-c3cccc(OCC(=O)NC(C)(C)CC)c3)nc(Nc3ccc(-c4cn[nH]c4)cc3)c2C1 [Example 132, 2-(3-(4-((4-(1H-pyrazol-4-yl)phenyl)amino)-6-propionyl-5,6,7,8-tetrahydropyrido[4,3-d]pyrimidin-2-yl)phenoxy)-N-(tert-pentyl)acetamide]
251 to 500 | CC(C)NC(=O)COc1cccc(-c2nc3c(c(Nc4ccc(-c5cn[nH]c5)cc4)n2)CSC3)c1 [Example 84, 2-(3-(4-((4-(1H-pyrazol-4-yl)phenyl)amino)-5,7-dihydrothieno[3,4-d]pyrimidin-2-yl)phenoxy)-N-isopropylacetamide]
> 1000 | O=C(COc1cccc(-c2nc(Nc3ccc(-c4cn[nH]c4)cc3)c3ccsc3n2)c1)N1CCOCC1 [Example 39, 2-(3-(4-((4-(1H-pyrazol-4-yl)phenyl)amino)thieno[2,3-d]pyrimidin-2-yl)phenoxy)-1-morpholinoethan-1-one]
10 to 100 | CC(C)(C)CNC(=O)COc1cccc(-c2nc3c(c(Nc4ccc(-c5cn[nH]c5)cc4)n2)CNCC3)c1 [Example 167, 2-(3-(4-((4-(1H-pyrazol-4-yl)phenyl)amino)-5,6,7,8-tetrahydropyrido[4,3-d]pyrimidin-2-yl)phenoxy)-N-neopentylacetamide]
> 1000 | NC(=O)COc1cccc(-c2nc(Nc3ccc(-c4cn[nH]c4)cc3)c3sccc3n2)c1 [Example 139, 2-(3-(4-((4-(1H-pyrazol-4-yl)phenyl)amino)thieno[3,2-d]pyrimidin-2-yl)phenoxy)acetamide]
> 1000 | CNC(=O)COc1cccc(-c2nc(Nc3ccc(-c4cn[nH]c4)cc3)c3ccsc3n2)c1 [Example 45, 2-(3-(4-((4-(1H-pyrazol-4-yl)phenyl)amino)thieno[2,3-d]pyrimidin-2-yl)phenoxy)-N-methylacetamide]
501 to 1000 | CCC(CC)NC(=O)COc1cc(F)cc(-c2nc3c(c(Nc4ccc(-c5cn[nH]c5)cc4)n2)COC3)c1 [Example 88, 2-(3-(4-((4-(1H-pyrazol-4-yl)phenyl)amino)-5,7-dihydrofuro[3,4-d]pyrimidin-2-yl)-5-fluorophenoxy)-N-(pentan-3-yl)acetamide]
101 to 250 | O=C(COc1cccc(-c2nc(Nc3ccc(-c4cn[nH]c4)cc3)c3sccc3n2)c1)NC1CCCCC1 [Example 180, 2-(3-(4-((4-(1H-pyrazol-4-yl)phenyl)amino)thieno[3,2-d]pyrimidin-2-yl)phenoxy)-N-cyclohexylacetamide]
251 to 500 | O=C(COc1cccc(-c2nc(Nc3ccc(-c4cn[nH]c4)cc3)c3ncsc3n2)c1)NC1CCC1 [Example 66, 2-(3-(7-((4-(1H-pyrazol-4-yl)phenyl)amino)thiazolo[5,4-d]pyrimidin-5-yl)phenoxy)-N-cyclobutylacetamide]
501 to 1000 | O=C(COc1cccc(-c2nc(Nc3ccc(-c4cn[nH]c4)cc3)c3sccc3n2)c1)N1CCOCC1 [Example 38, 2-(3-(4-((4-(1H-pyrazol-4-yl)phenyl)amino)thieno[3,2-d]pyrimidin-2-yl)phenoxy)-1-morpholinoethan-1-one]
10 to 100 | Cc1ccc(C(=O)Nc2cccc(-c3nc4c(c(Nc5ccc(-c6cn[nH]c6)cc5)n3)COC4)c2)cn1 [Example 72, N-(3-(4-((4-(1H-pyrazol-4-yl)phenyl)amino)-5,7-dihydrofuro[3,4-d]pyrimidin-2-yl)phenyl)-6-methylnicotinamide]
101 to 250 | CCC(C)(C)NC(=O)COc1cccc(-c2nc(Nc3ccc(-c4cn[nH]c4)cc3)c3sccc3n2)c1 [Example 111, 2-(3-(4-((4-(1H-pyrazol-4-yl)phenyl)amino)thieno[3,2-d]pyrimidin-2-yl)phenoxy)-N-(tert-pentyl)acetamide]
10 to 100 | CCC(CC)NC(=O)COc1cccc(-c2nc3c(c(Nc4ccc(-c5cn[nH]c5)cc4)n2)CN(C(C)=O)CC3)c1 [Example 113, 2-(3-(4-((4-(1H-pyrazol-4-yl)phenyl)amino)-6-acetyl-5,6,7,8-tetrahydropyrido[4,3-d]pyrimidin-2-yl)phenoxy)-N-(pentan-3-yl)acetamide]
101 to 250 | O=C(COc1cccc(-c2nc(Nc3ccc(-c4cn[nH]c4)cc3)c3ncsc3n2)c1)NC1CCCC1 [Example 67, 2-(3-(7-((4-(1H-pyrazol-4-yl)phenyl)amino)thiazolo[5,4-d]pyrimidin-5-yl)phenoxy)-N-cyclopentylacetamide]
10 to 100 | CC(=O)N1Cc2nc(-c3cccc(OCC(=O)NC4CCCC4)c3)nc(Nc3ccc(-c4cn[nH]c4)cc3)c2C1 [Example 143, 2-(3-(4-((4-(1H-pyrazol-4-yl)phenyl)amino)-6-acetyl-6,7-dihydro-5H-pyrrolo[3,4-d]pyrimidin-2-yl)phenoxy)-N-cyclopentylacetamide]
10 to 100 | CC(=O)N1CCc2nc(-c3cccc(OCC(=O)NC(C)(C)C)c3)nc(Nc3ccc(-c4cn[nH]c4)cc3)c2C1 [Example 114, 2-(3-(4-((4-(1H-pyrazol-4-yl)phenyl)amino)-6-acetyl-5,6,7,8-tetrahydropyrido[4,3-d]pyrimidin-2-yl)phenoxy)-N-(tert-butyl)acetamide]
10 to 100 | CC(C)NC(=O)COc1cccc(-c2nc3c(c(Nc4ccc(-c5cn[nH]c5)cc4)n2)COCC3)c1 [Example 102, 2-(3-(4-((4-(1H-pyrazol-4-yl)phenyl)amino)-7,8-dihydro-5H-pyrano[4,3-d]pyrimidin-2-yl)phenoxy)-N-isopropylacetamide]
10 to 100 | CCC(CC)NC(=O)COc1cccc(-c2nc3c(c(Nc4ccc(-c5cn[nH]c5)cc4)n2)COC3)c1 [Example 76, 2-(3-(4-((4-(1H-pyrazol-4-yl)phenyl)amino)-5,7-dihydrofuro[3,4-d]pyrimidin-2-yl)phenoxy)-N-(pentan-3-yl)acetamide dihydrochloride]
> 1000 | CC(C)NC(=O)COc1cc(F)cc(-c2nc(Nc3ccc(-c4cn[nH]c4)cc3)c3ncn(C)c3n2)c1 [Example 36]
10 to 100 | CCC(C)(C)NC(=O)COc1cccc(-c2nc3c(c(Nc4ccc(-c5cn[nH]c5)cc4)n2)CNCC3)c1 [Example 128, 2-(3-(4-((4-(1H-pyrazol-4-yl)phenyl)amino)-5,6,7,8-tetrahydropyrido[4,3-d]pyrimidin-2-yl)phenoxy)-N-(tert-pentyl)acetamide]
101 to 250 | CC(C(=O)Nc1cccc(-c2nc(Nc3ccc(-c4cn[nH]c4)cc3)c3occc3n2)c1)N1CCOCC1 (stereo not shown) [Example 172, N-(3-(4-((4-(1H-pyrazol-4-yl)phenyl)amino)furo[3,2-d]pyrimidin-2-yl)phenyl)-2-morpholinopropanamide]
> 1000 | O=C(CN1CCOCC1)Nc1cccc(-c2nc(Nc3ccc(-c4cn[nH]c4)cc3)c3occc3n2)c1 [Example 4, N-(3-(4-((4-(1H-pyrazol-4-yl)phenyl)amino)furo[3,2-d]pyrimidin-2-yl)phenyl)-2-morpholinoacetamide]
10 to 100 | CC(C)CNC(=O)COc1cccc(-c2nc3c(c(Nc4ccc(-c5cn[nH]c5)cc4)n2)COC3)c1 [Example 78, 2-(3-(4-((4-(1H-pyrazol-4-yl)phenyl)amino)-5,7-dihydrofuro[3,4-d]pyrimidin-2-yl)phenoxy)-N-isobutylacetamide]
